# Test results taken from patent publication US10239870B2, “Dopamine D3 receptor antagonists” (priority 2014, dated 2019).
# Target: hD2 recombinant receptor (human dopamine receptor type 2, long variant, CHO-Gα16-hD2L membranes) (Homo sapiens (Human), UniProt P14416)
# Settings: displacement of 0.08 nM [3H]-Spiperone
row,Compound,D2 pKi
1,"Cl.Cn1c(SCCCN2CC[C@]3(C[C@@H]3c3ccc(C(F)(F)F)cc3)C2)nnc1C1CCN(C(=O)C2CC2)CC1 [Example 106, (1R,3S)-5-(3-{[5-(1-cyclopropanecarbonylpiperidin-4-yl)-4-methyl-4H-1,2,4-triazol-3-yl]sulfanyl}propyl)-1-[4-(trifluoromethyl)phenyl]-5-azaspiro[2.4]heptane hydrochloride]",6.05
2,"Cl.Cn1c(SCCCN2CC[C@]3(C[C@@H]3c3ccc(C(F)(F)F)cc3)C2)nnc1-c1cccn2cnnc12 [Example 267, (1R,3S)-5-{3-[(4-methyl-5-{[1,2,4]triazolo[4,3-a]pyridin-8-yl}-4H-1,2,4-triazol-3-yl)-sulfanyl]propyl}-1-[4-(trifluoromethyl)phenyl]-5-azaspiro[2.4]heptane]",5.38
3,"Cc1nnsc1-c1nnc(SCCCN2CC[C@]3(C[C@@H]3c3ccc(C(F)(F)F)cc3)C2)n1C.Cl [Example 262, (1R,3S)-5-(3-{[4-methyl-5-(4-methyl-1,2,3-thiadiazol-5-yl)-4H-1,2,4-triazol-3-yl]sulfanyl}propyl)-1-[4-(trifluoromethyl)phenyl]-5-azaspiro[2.4]heptane]",6.18
4,"COCCC(=O)N1CCC(c2nnc(SCCCN3CC[C@]4(C[C@@H]4c4ccc(C(F)(F)F)cc4)C3)n2C)CC1.Cl [Example 104, 3-methoxy-1-{4-[4-methyl-5-({3-[(1R,3S)-1-[4-(trifluoromethyl)phenyl]-5-azaspiro[2.4]heptan-5-yl]propyl}sulfanyl)-4H-1,2,4-triazol-3-yl]piperidin-1-yl}propan-1-one hydrochloride]",5.80
5,"CC(=O)N1CCC(c2nnc(SCCCN3CC[C@]4(C[C@@H]4c4ccc(C(F)(F)F)cc4F)C3)n2C)CC1 [Example 101, 1-{4-[5-({3-[(1S,3S/1R,3R)-1-[2-fluoro-4-(trifluoromethyl)phenyl]-5-azaspiro[2.4]heptan-5-yl]propyl}sulfanyl)-4-methyl-4H-1,2,4-triazol-3-yl]piperidin-1-yl}ethan-1-one]",5.99
6,"Cn1c(SCCCN2CC[C@]3(CC3c3ccc(C(F)(F)F)cc3)C2)nnc1C1CCC(N)CC1 (stereo partly drawn) [Example 108, 4-[4-methyl-5-({3-[(1R,3S/1S,3R)-1-[4-(trifluoromethyl)phenyl]-5-azaspiro[2.4]heptan-5-yl]propyl}sulfanyl)-4H-1,2,4-triazol-3-yl]cyclohexan-1-amine]",6.72
7,"CN(C)C(=O)c1cccc(-c2nnc(SCCCN3CC[C@]4(C[C@@H]4c4ccc(C(F)(F)F)cc4)C3)n2C)n1.Cl [Example 197, N,N-dimethyl-6-[4-methyl-5-({3-[(1R,3S)-1-[4-(trifluoromethyl)phenyl]-5-azaspiro[2.4]heptan-5-yl]propyl}sulfanyl)-4H-1,2,4-triazol-3-yl]pyridine-2-carboxamide hydrochloride]",5.66
8,"CC(=O)N1CC(c2nnc(SCCCN3CC[C@]4(C[C@@H]4c4ccc(C(F)(F)F)cc4)C3)n2C)C1 [Example 107, 1-{3-[4-methyl-5-({3-[(1R,3S/1S,3R)-1-[4-(trifluoromethyl)phenyl]-5-azaspiro[2.4]heptan-5-yl]propyl}sulfanyl)-4H-1,2,4-triazol-3-yl]azetidin-1-yl}ethan-1-one]",5.56
9,"Cl.Cn1c(SCCCN2CC[C@]3(C[C@@H]3c3ccc(C(F)(F)F)cc3)C2)nnc1-c1ccc2nncn2c1 [Example 268, (1R,3S)-5-{3-[(4-methyl-5-{[1,2,4]triazolo[4,3-a]pyridin-6-yl}-4H-1,2,4-triazol-3-yl)-sulfanyl]propyl}-1-[4-(trifluoromethyl)phenyl]-5-azaspiro[2.4]heptane]",5.80
10,"Cl.Cn1c(SCCCN2CC[C@]3(C[C@@H]3c3ccc(C(F)(F)F)cc3)C2)nnc1C1CCC(=O)NC1 (stereo partly drawn) [Example 121, 5-[4-methyl-5-({3-[(1R,3S)-1-[4-(trifluoromethyl)phenyl]-5-azaspiro[2.4]heptan-5-yl]propyl}sulfanyl)-4H-1,2,4-triazol-3-yl]piperidin-2-one hydrochloride]",5.92
11,"CC(=O)N1CCC(c2nnc(SCCCN3CC[C@]4(C[C@@H]4c4ccc(C(F)(F)F)cc4F)C3)n2C)CC1.Cl [Example 102, 1-{4-[5-({3-[(1S,3S)-1-[2-fluoro-4-(trifluoromethyl)phenyl]-5-azaspiro[2.4]heptan-5-yl]propyl}sulfanyl)-4-methyl-4H-1,2,4-triazol-3-yl]piperidin-1-yl}ethan-1-one hydrochloride]",6.00
12,"CNC(=O)c1cccc(-c2nnc(SCCCN3CC[C@]4(C[C@@H]4c4ccc(C(F)(F)F)cc4)C3)n2C)n1.Cl [Example 195, N-methyl-6-[4-methyl-5-({3-[(1R,3S)-1-[4-(trifluoromethyl)phenyl]-5-azaspiro[2.4]heptan-5-yl]propyl}sulfanyl)-4H-1,2,4-triazol-3-yl]pyridine-2-carboxamide hydrochloride]",5.84
13,"Cc1nnc2ccc(-c3nnc(SCCCN4CC[C@]5(C[C@@H]5c5ccc(C(F)(F)F)cc5)C4)n3C)cn12 [Example 271, (1R,3S)-5-{3-[(4-methyl-5-{3-methyl-[1,2,4]triazolo[4,3-a]pyridin-6-yl}-4H-1,2,4-triazol-3-yl)sulfanyl]propyl}-1-[4-(trifluoromethyl)phenyl]-5-azaspiro[2.4]heptane]",5.91
14,"Cl.Cn1c(SCCCN2CC[C@]3(C[C@@H]3c3ccc(C(F)(F)F)cc3)C2)nnc1-c1ccc[nH]c1=O [Example 125, 3-[4-methyl-5-({3-[(1R,3S)-1-[4-(trifluoromethyl)phenyl]-5-azaspiro[2.4]heptan-5-yl]propyl}sulfanyl)-4H-1,2,4-triazol-3-yl]-1,2-dihydropyridin-2-one hydrochloride]",5.48

# Continued, values first:
row,D2 pKi,Compound
1,6.00,"Cn1c(SCCCN2CC[C@]3(CC3c3ccc(C(F)(F)F)cc3F)C2)nnc1-c1cccc(=O)[nH]1 (stereo partly drawn) [Example 123, 6-[5-({3-[(1R,3S/1S,3R)-1-[2-fluoro-4-(trifluoromethyl)phenyl]-5-azaspiro[2.4]heptan-5-yl]propyl}sulfanyl)-4-methyl-4H-1,2,4-triazol-3-yl]-1,2-dihydropyridin-2-one]"
2,6.23,"Cn1c(SCCCN2CC[C@]3(C[C@H]3c3ccc(C(F)(F)F)cc3F)C2)nnc1-c1ccncc1 [Example 164, (1R,3S/1S,3R)-1-[2-fluoro-4-(trifluoromethyl)phenyl]-5-(3-{[4-methyl-5-(pyridin-4-yl)-4H-1,2,4-triazol-3-yl]sulfanyl}propyl)-5-azaspiro[2.4]heptane]"
3,5.85,"Cc1nccnc1-c1nnc(SCCCN2CC[C@]3(C[C@@H]3c3ccc(C(F)(F)F)cc3)C2)n1C [Example 224, (1R,3S/1S,3R)-5-(3-{[4-methyl-5-(3-methylpyrazin-2-yl)-4H-1,2,4-triazol-3-yl]sulfanyl}propyl)-1-[4-(trifluoromethyl)phenyl]-5-azaspiro[2.4]heptane]"
4,6.26,"Cn1cccc1-c1nnc(SCCCN2CC[C@]3(CC3c3ccc(C(F)(F)F)cc3)C2)n1C (stereo partly drawn) [Example 258, (1R,3S/1S,3R)-5-(3-{[4-methyl-5-(1-methyl-1H-pyrrol-2-yl)-4H-1,2,4-triazol-3-yl]sulfanyl}propyl)-1-[4-(trifluoromethyl)phenyl]-5-azaspiro[2.4]heptane]"
5,6.16,"Cn1c(SCCCN2CC[C@]3(CC3c3ccc(F)cc3F)C2)nnc1-c1ccc(=O)[nH]c1 (stereo partly drawn) [Example 130, 5-[5-({3-[(1S,3S/1R,3R)-1-(2,4-difluorophenyl)-5-azaspiro[2.4]heptan-5-yl]propyl}sulfanyl)-4-methyl-4H-1,2,4-triazol-3-yl]-1,2-dihydropyridin-2-one]"
6,6.00,"Cc1cnc(-c2nnc(SCCCN3CC[C@]4(CC4c4ccc(C(F)(F)F)cc4)C3)n2C)cn1 (stereo partly drawn) [Example 223, (1R,3S/1S,3R)-5-(3-{[4-methyl-5-(5-methylpyrazin-2-yl)-4H-1,2,4-triazol-3-yl]sulfanyl}propyl)-1-[4-(trifluoromethyl)phenyl]-5-azaspiro[2.4]heptane]"
7,6.34,"Cn1c(SCCCN2CC[C@]3(CC3c3ccc(C(F)(F)F)cc3)C2)nnc1-c1cccc(=O)[nH]1 (stereo partly drawn) [Example 122, 6-[4-methyl-5-({3-[(1R,3S/1S,3R)-1-[4-(trifluoromethyl)phenyl]-5-azaspiro[2.4]heptan-5-yl]propyl}sulfanyl)-4H-1,2,4-triazol-3-yl]-1,2-dihydropyridin-2-one]"
8,6.01,"Cc1ccc(-c2nnc(SCCCN3CC[C@]4(CC4c4ccc(C(F)(F)F)cc4)C3)n2C)cn1 (stereo partly drawn) [Example 169, (1R,3S/1S,3R)-5-(3-{[4-methyl-5-(6-methylpyridin-3-yl)-4H-1,2,4-triazol-3-yl]sulfanyl}propyl)-1-[4-(trifluoromethyl)phenyl]-5-azaspiro[2.4]heptane]"
9,5.32,"Cn1c(SCCCN2CC[C@]3(CC3c3ccc(C(F)(F)F)cc3)C2)nnc1-c1ccc[nH]c1=O (stereo partly drawn) [Example 124, 3-[4-methyl-5-({3-[(1R,3S/1S,3R)-1-[4-(trifluoromethyl)phenyl]-5-azaspiro[2.4]heptan-5-yl]propyl}sulfanyl)-4H-1,2,4-triazol-3-yl]-1,2-dihydropyridin-2-one]"
10,5.91,"Cc1cncc(-c2nnc(SCCCN3CC[C@]4(CC4c4ccc(C(F)(F)F)cc4)C3)n2C)n1 (stereo partly drawn) [Example 222, (1R,3S/1S,3R)-5-(3-{[4-methyl-5-(6-methylpyrazin-2-yl)-4H-1,2,4-triazol-3-yl]sulfanyl}propyl)-1-[4-(trifluoromethyl)phenyl]-5-azaspiro[2.4]heptane]"
11,6.54,"Cn1c(SCCCN2CC[C@]3(CC3c3ccccc3C(F)(F)F)C2)nnc1-c1cc[nH]c(=O)c1 (stereo partly drawn) [Example 135, 4-[4-methyl-5-({3-[(1S,3S/1R,3R)-1-[2-(trifluoromethyl)phenyl]-5-azaspiro[2.4]heptan-5-yl]propyl}sulfanyl)-4H-1,2,4-triazol-3-yl]-1,2-dihydropyridin-2-one]"
12,6.04,"Cn1c(SCCCN2CC[C@]3(C[C@@H]3c3ccc(C(F)(F)F)cc3F)C2)nnc1-c1ccn2cnnc2c1 [Example 270, (1S,3S)-1-[2-fluoro-4-(trifluoromethyl)phenyl]-5-{3-[(4-methyl-5-{[1,2,4]triazolo[4,3-a]pyridin-7-yl}-4H-1,2,4-triazol-3-yl)sulfanyl]propyl}-5-azaspiro[2.4]heptane]"
